Values joined by “and” are separate entries in the source; they are usually repeats but may differ in a detail not shown here. Equal entries are not always repeated. Where two headings read alike, the source gives them in different places.
Key:
human FXR (NR1H4) = target: T1, human FXR (NR1H4) (Homo sapiens, UniProt Q96RI1); test: Human FXR (NR1H4) agonist assessment, FXRE-NanoLuc reporter in HEK293T cells; assay type: cell-based
T1 sequence (Q96RI1 1-476 isoform Q96RI1-1): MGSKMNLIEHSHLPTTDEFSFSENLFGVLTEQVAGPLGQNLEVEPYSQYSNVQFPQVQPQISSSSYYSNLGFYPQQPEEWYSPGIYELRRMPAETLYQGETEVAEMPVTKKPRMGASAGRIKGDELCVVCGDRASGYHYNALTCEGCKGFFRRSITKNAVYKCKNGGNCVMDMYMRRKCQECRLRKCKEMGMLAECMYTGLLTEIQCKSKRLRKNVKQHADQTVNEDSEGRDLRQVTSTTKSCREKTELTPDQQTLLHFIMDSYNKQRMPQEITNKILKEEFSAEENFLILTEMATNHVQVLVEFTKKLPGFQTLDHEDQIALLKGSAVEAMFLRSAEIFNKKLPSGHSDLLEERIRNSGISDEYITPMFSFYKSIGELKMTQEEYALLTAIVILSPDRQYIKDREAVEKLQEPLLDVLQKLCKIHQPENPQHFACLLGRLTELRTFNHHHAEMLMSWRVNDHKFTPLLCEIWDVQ
How it was run: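 HEK293T cells stably expressing human FXR with an FXRE-NanoLuc reporter were treated with compounds for 24 hr at 37 °C, with 0.01% DMSO as negative control. Medium was read for luminescence after 5 min with coelenterazine. EC50 was fitted by sigmoid to concentration-response data.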

MRGPRX4 = MRGPRX4 (Homo sapiens, UniProt Q96LA9); test: MRGPRX4 activation, Fluo-8 Ca2+ FLIPR assay in HEK293T cells stably expressing MRGPRX4; assay type: cell-based; parameters: key to MRGPRX4 activation, Average / MRGPRX4 activation, Ave.: fluorescence change dF/F0
MRGPRX4, sequence (Q96LA9 whole entry): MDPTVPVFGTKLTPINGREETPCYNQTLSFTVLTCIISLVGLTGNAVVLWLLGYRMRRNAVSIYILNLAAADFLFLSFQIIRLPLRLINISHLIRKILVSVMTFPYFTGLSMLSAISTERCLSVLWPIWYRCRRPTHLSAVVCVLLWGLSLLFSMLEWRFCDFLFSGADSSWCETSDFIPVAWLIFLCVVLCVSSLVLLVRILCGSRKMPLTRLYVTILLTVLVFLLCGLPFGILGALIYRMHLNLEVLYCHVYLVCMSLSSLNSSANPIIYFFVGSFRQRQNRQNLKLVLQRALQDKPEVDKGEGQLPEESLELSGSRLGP
How it was run: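 Cells seeded overnight to >95% confluence, loaded 40-60 min at room temperature with 2 μM Fluo-8 AM, then kept in HHBS. Baseline read 30 s, compound added, signal followed 150 s more.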

[1] = FXR activation, HEK293T FXRE-NanoLuc reporter, 24 hr
[2] = FXR activation, HEK293T FXRE-NanoLuc reporter, 24 hr, read-out: EC50
[3] = MRGPRX4 activation, Ca2+ fluorescence, no activation in tested range reported as III, read-out: Activity (EC50 μM)

Row | SMILES | Efficacy (maximum measured induction of NanoLuc, normalized to CDCA set as 100%) (human FXR (NR1H4); [1]) | EC50 (human FXR (NR1H4); [2]) [µM] | MRGPRX4 activation, fluorescence change (dF/F0), Average (MRGPRX4; Conc. (Log[M]) −4) | MRGPRX4 activation, fluorescence change (dF/F0), Average (MRGPRX4; Conc. (Log[M]) −4.5) | MRGPRX4 activation, fluorescence change (dF/F0), Average (MRGPRX4; Conc. (Log[M]) −5) | MRGPRX4 activation, fluorescence change (dF/F0), Average (MRGPRX4; Conc. (Log[M]) −5.5) | MRGPRX4 activation, fluorescence change (dF/F0), Average (MRGPRX4; Conc. (Log[M]) −6) | MRGPRX4 activation, fluorescence change (dF/F0), Average (MRGPRX4; Conc. (Log[M]) −7) | MRGPRX4 activation, fluorescence change (dF/F0), Average (MRGPRX4; Conc. (Log[M]) −8) | MRGPRX4 activation, fluorescence change (dF/F0), Average (MRGPRX4; Conc. (Log[M]) −9) | EC50 (MRGPRX4; [3]) [µM] | other results
1 | CC[C@H]1[C@@H](OC(=O)c2cccc(I)c2)[C@@H]2[C@H](CC[C@]3(C)C([C@H](C)CCC(=O)OC)=CC(=O)[C@@H]23)[C@@]2(C)CCCC[C@@H]12 [3-2] | C (100%<efficacy <=300%) | > 10 | 0.130 | 0.023 | −0.003 | −0.034 | 0.008 | −0.014 | −0.016 | −0.035 | > 100 | 
2 | CC[C@H]1[C@@H](O)[C@@H]2[C@H](CC[C@]3(C)[C@@H]([C@H](C)CCC(=O)NS(=O)(=O)C(C)(C)C)CC[C@@H]23)[C@@]2(C)CCCC[C@@H]12 [4-1] | B (300%<efficacy <=400%) | < 1 | 0.057 | 0.035 | −0.037 | −0.013 | 0.002 | 0.009 | 0.004 | 0.005 | > 100 | 
3 | C[C@H](CCCC(=O)O)[C@H]1CC[C@H]2[C@@H]3CC[C@@H]4C[C@H](O)CC[C@]4(C)[C@H]3C[C@H](O)[C@]12C [RC-2] | B (300%<efficacy <=400%) | 1 to 10 | 0.242 | 0.159 | 0.126 | 0.034 | 0.017 | −0.012 | −0.010 | −0.018 | < 50 | 
4 | CC[C@H]1[C@@H](O)[C@@H]2[C@H](CC[C@]3(C)[C@@H]([C@H](C)CCC(=O)NS(C)(=O)=O)CC[C@@H]23)[C@@]2(C)CC[C@H](F)C[C@@H]12 [9-7] | A (efficacy >400%) | 1 to 10 |  | 0.022 and 0.037 |  |  |  |  |  |  | > 100 | 
5 | [2H]C1([2H])CC[C@@]2(C)[C@@H](C1)[C@@H](CC)[C@@H](O)[C@@H]1[C@@H]2CC[C@]2(C)[C@@H]([C@H](C)CCN=C=S)CC[C@@H]12 [14-2] | C (100%<efficacy <=300%) |  |  |  |  |  |  |  |  |  |  | EC50 (human FXR (NR1H4)): > 10 µM; EC50 (MRGPRX4): > 100 µM; MRGPRX4 activation, Average (MRGPRX4; E3-9, Conc. (Log[M]) −4.0): 0.090; MRGPRX4 activation, Average (MRGPRX4; E3-9, Conc. (Log[M]) −4.5): 0.027; MRGPRX4 activation, Average (MRGPRX4; E3-9, Conc. (Log[M]) −5.0): 0.027; MRGPRX4 activation, Average (MRGPRX4; E3-9, Conc. (Log[M]) −5.4): 0.030; MRGPRX4 activation, Average (MRGPRX4; E3-9, Conc. (Log[M]) −5.9): 0.020; MRGPRX4 activation, Average (MRGPRX4; E3-9, Conc. (Log[M]) −6.4): 0.013; MRGPRX4 activation, Average (MRGPRX4; E3-9, Conc. (Log[M]) −6.9): 0.013; MRGPRX4 activation, Average (MRGPRX4; E3-9, Conc. (Log[M]) −7.3): 0.013; MRGPRX4 activation, Average (MRGPRX4; E3-9, Conc. (Log[M]) −7.8): 0.010; MRGPRX4 activation, Average (MRGPRX4; E3-9, Conc. (Log[M]) −8.3): 0.010
6 | CC[C@H]1[C@@H](O)[C@@H]2[C@H](CC[C@]3(C)[C@@H]([C@H](C)CCC(=O)OC)CC[C@@H]23)[C@@]2(C)CCCC[C@@H]12 [1-4] | C (100%<efficacy <=300%) | 1 to 10 | 0.098 | 0.004 | −0.014 | −0.004 | −0.011 | −0.006 | −0.009 | −0.020 | > 100 | 

Reference: patent US20260116910A1, “POLYCYCLIC COMPOUNDS AND METHODS THEREOF” (HEPAITECH (BEIJING) BIOPHARMA TECHNOLOGY CO., LTD., priority 2021, published 2026)
